# Test results as given in PubChem BioAssay (NCI).
#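 Where inhibition never reached the appropriate level, the endpoint shown equals the highest concentration tested. Otherwise, values were interpolated linearly from a five-concentration, 48-hour dose response in 96-well plates. GI50 marks 50% less growth. Definition used: TGI = concentration required for complete inhibition of growth.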
# Key:
# Experiment in all cases: NCI tumour cell line growth inhibition, 48 h
# [1] = system: NCI/ADR-RES ovarian
# [2] = system: SF-268 CNS
# [3] = system: MALME-3M melanoma
# [4] = system: NCI-H23 lung
# [5] = system: SN12C renal
# [6] = system: COLO 205 colon
# [7] = system: HCT-15 colon
# [8] = system: T-47D breast
# [9] = system: HS 578T breast
# [10] = system: SF-295 CNS
# [11] = system: HOP-92 NSCLC
# [12] = system: SNB-75 CNS
# [13] = system: IGROV1 ovarian
# [14] = system: HOP-62 NSCLC
# [15] = system: BT-549 breast
# [16] = system: UACC-62 melanoma
# [17] = system: SW-620 colon
# [18] = system: CCRF-CEM leukemia
# [19] = system: SNB-19 CNS
# [20] = system: RPMI-8226 leukemia
# [21] = system: K-562 leukemia
# [22] = system: TK-10 renal
# [23] = system: MOLT-4 leukemia
# [24] = system: SK-MEL-5 melanoma
# [25] = system: OVCAR-8 ovarian
# [26] = system: RXF 393 renal
# [27] = system: NCI-H522 lung
# [28] = system: HCT-116 colon
# [29] = system: OVCAR-5 ovarian
# [30] = system: UACC-257 melanoma
# [31] = system: SK-MEL-2 melanoma
# [32] = system: OVCAR-4 ovarian
# [33] = system: HCC-2998 colon
# [34] = system: HL-60(TB) leukemia
# [35] = system: SR leukemia
# [36] = system: ACHN renal
# [37] = system: U251 CNS
# [38] = system: OVCAR-3 ovarian
# [39] = system: MDA-MB-231 breast
# [40] = system: A498 renal
# [41] = system: NCI-H460 lung
# [42] = system: 786-0 renal
# [43] = system: DU-145 prostate
# [44] = system: CAKI-1 renal
# [45] = system: MDA-MB-435
# [46] = system: UO-31 renal
# [47] = system: M14 melanoma
# [48] = system: EKVX NSCLC
# [49] = system: SK-OV-3 ovarian
# [50] = system: KM12 colon
# [51] = system: HT29 colon
# [52] = system: A549 NSCLC
# [53] = system: SF-539 CNS
# [54] = system: PC-3 prostate
# [55] = system: MCF7 breast
# [56] = system: LOX IMVI melanoma
# [57] = system: NCI-H226 lung
# [58] = system: SK-MEL-28 melanoma
compound,measurement,setting,value
FC(F)(F)c1ccc(-c2nc(-c3nc4cc(Cl)c(Cl)cc4[nH]3)c3ccccn23)cc1,GI50,[1],6100 nM
same,TGI,[1],> 100000 nM
same,GI50,[2],4190 nM
same,TGI,[2],> 100000 nM
same,GI50,[3],3560 nM
same,TGI,[3],> 100000 nM
same,GI50,[4],6570 nM
same,TGI,[4],> 100000 nM
same,GI50,[5],> 100000 nM
same,TGI,[5],> 100000 nM
same,GI50,[6],> 100000 nM
same,TGI,[6],> 100000 nM
same,GI50,[7],30500 nM
same,TGI,[7],> 100000 nM
same,GI50,[8],4060 nM
same,TGI,[8],> 100000 nM
same,GI50,[9],3990 nM
same,TGI,[9],> 100000 nM
same,GI50,[10],3900 nM
same,TGI,[10],> 100000 nM
same,GI50,[11],2970 nM
same,TGI,[11],28700 nM
same,GI50,[12],1450 nM
same,TGI,[12],4300 nM
same,GI50,[13],16100 nM
same,TGI,[13],> 100000 nM
same,GI50,[14],3040 nM
same,TGI,[14],16300 nM
same,GI50,[15],8690 nM
same,TGI,[15],> 100000 nM
same,GI50,[16],15600 nM
same,TGI,[16],> 100000 nM
same,GI50,[17],> 100000 nM
same,TGI,[17],> 100000 nM
same,GI50,[18],> 100000 nM
same,TGI,[18],> 100000 nM
same,GI50,[19],6880 nM
same,TGI,[19],> 100000 nM
same,GI50,[20],> 100000 nM
same,TGI,[20],> 100000 nM
same,GI50,[21],> 100000 nM
same,TGI,[21],> 100000 nM
same,GI50,[22],8150 nM
same,TGI,[22],> 100000 nM
same,GI50,[23],> 100000 nM
same,TGI,[23],> 100000 nM
same,GI50,[24],4200 nM
same,TGI,[24],> 100000 nM
same,GI50,[25],6610 nM
same,TGI,[25],> 100000 nM
same,GI50,[26],2260 nM
same,TGI,[26],5990 nM
same,GI50,[27],10600 nM
same,TGI,[27],> 100000 nM
same,GI50,[28],2920 nM
same,TGI,[28],> 100000 nM
same,GI50,[29],> 100000 nM
same,TGI,[29],> 100000 nM
same,GI50,[30],> 100000 nM
same,TGI,[30],> 100000 nM
same,GI50,[31],9490 nM
same,TGI,[31],52200 nM
same,GI50,[32],1870 nM
same,TGI,[32],5410 nM
same,GI50,[33],> 100000 nM
same,TGI,[33],> 100000 nM
same,GI50,[34],> 100000 nM
same,TGI,[34],> 100000 nM
same,GI50,[35],> 100000 nM
same,TGI,[35],> 100000 nM
same,GI50,[36],3900 nM
same,TGI,[36],28500 nM
same,GI50,[37],3130 nM
same,TGI,[37],> 100000 nM
same,GI50,[38],3740 nM
same,TGI,[38],> 100000 nM
same,GI50,[39],2490 nM
same,TGI,[39],> 100000 nM
same,GI50,[40],4580 nM
same,TGI,[40],79100 nM
COc1ccc2c(c1)C(=O)c1c-2n(CCCN)c(=O)c2ccccc12,GI50,[41],< 10 nM
same,TGI,[41],40.2 nM
same,GI50,[1],99.2 nM
same,TGI,[1],1950 nM
same,GI50,[2],45 nM
same,TGI,[2],1090 nM
same,GI50,[3],31 nM
same,TGI,[3],352 nM
same,GI50,[4],49.7 nM
same,TGI,[4],1020 nM
same,GI50,[5],< 16 nM
same,TGI,[5],118 nM
same,GI50,[42],19.6 nM
same,TGI,[42],310 nM
same,GI50,[6],< 31.8 nM
same,TGI,[6],807 nM
same,GI50,[43],17.9 nM
same,TGI,[43],293 nM
same,GI50,[44],< 46.8 nM
same,TGI,[44],251 nM
same,GI50,[7],17.9 nM
same,TGI,[7],265 nM
same,GI50,[8],< 21.8 nM
same,TGI,[8],109 nM
same,GI50,[9],649 nM
same,TGI,[9],3090 nM
same,GI50,[45],146 nM
same,TGI,[45],1610 nM
same,GI50,[46],41.7 nM
same,TGI,[46],486 nM
same,GI50,[10],15 nM
same,TGI,[10],657 nM
same,GI50,[47],95.1 nM
same,TGI,[47],1530 nM
same,GI50,[11],181 nM
same,TGI,[11],1430 nM
same,GI50,[12],15.1 nM
same,TGI,[12],1540 nM
same,GI50,[13],< 13.8 nM
same,TGI,[13],689 nM
same,GI50,[14],< 15.2 nM
same,TGI,[14],94.2 nM
same,GI50,[48],196 nM
same,TGI,[48],1830 nM
same,GI50,[15],820 nM
same,TGI,[15],2630 nM
same,GI50,[16],166 nM
same,TGI,[16],1210 nM
same,GI50,[17],< 10 nM
same,TGI,[17],1140 nM
same,GI50,[18],< 12.9 nM
same,TGI,[18],< 35.6 nM
same,GI50,[19],< 19.8 nM
same,TGI,[19],105 nM
same,GI50,[49],< 20.2 nM
same,TGI,[49],65.2 nM
same,GI50,[20],< 11.4 nM
same,TGI,[20],31.6 nM
same,GI50,[21],< 10 nM
same,TGI,[21],187 nM
same,GI50,[50],14.4 nM
same,TGI,[50],78.4 nM
same,GI50,[22],116 nM
same,TGI,[22],980 nM
same,GI50,[51],< 29.8 nM
same,TGI,[51],188 nM
same,GI50,[23],< 10 nM
same,TGI,[23],< 24.3 nM
same,GI50,[24],58.6 nM
same,TGI,[24],477 nM
same,GI50,[25],11.3 nM
same,TGI,[25],162 nM
same,GI50,[26],137 nM
same,TGI,[26],910 nM
same,GI50,[27],12.3 nM
same,TGI,[27],505 nM
same,GI50,[52],< 10 nM
same,TGI,[52],68.9 nM
same,GI50,[28],< 11.5 nM
same,TGI,[28],148 nM
same,GI50,[29],142 nM
same,TGI,[29],1180 nM
same,GI50,[30],383 nM
same,TGI,[30],2070 nM
same,GI50,[31],820 nM
same,TGI,[31],2670 nM
same,GI50,[53],60.9 nM
same,TGI,[53],646 nM
same,GI50,[32],133 nM
same,TGI,[32],1610 nM
same,GI50,[33],164 nM
same,TGI,[33],1180 nM
same,GI50,[54],206 nM
same,TGI,[54],1260 nM
same,GI50,[55],< 10 nM
same,TGI,[55],1070 nM
same,GI50,[56],10.2 nM
same,TGI,[56],78.6 nM
same,GI50,[57],44.1 nM
same,TGI,[57],122 nM
same,GI50,[34],< 10 nM
same,GI50,[36],< 13.4 nM
same,TGI,[36],40.8 nM
same,GI50,[37],< 17.3 nM
same,TGI,[37],271 nM
same,GI50,[38],95.7 nM
same,TGI,[38],798 nM
same,GI50,[58],459 nM
same,TGI,[58],1890 nM
same,GI50,[39],70.4 nM
same,TGI,[39],240 nM
same,GI50,[40],836 nM
same,TGI,[40],2210 nM
